# Test results as given in patent publication US10111854B2, “Synthesis and use of amine-containing flavonoids as potent anti-leishmanial agents” (The Hong Kong Polytechnic University, priority 2014, dated 2018).
# Read-outs that look alike come from different tables or passages of the source.
# Legend:
# [1] = test system: L. donovani HU3 amastigotes; test: Anti-amastigote activity in infected PEM, L. donovani HU3; format: cell-based; conditions: for IC50: Leishmania donovani, 72 h, infected PEM, 3 days, Giemsa, SSG-sensitive
# Summary of the method: (§1)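 Mouse peritoneal elicited macrophages on cover slips, infected overnight at 37 °C with late-log promastigotes at 20:1 parasite:macrophage, were washed and exposed to compound for 72 h at 37 °C. Giemsa staining gave percent infected macrophages and amastigotes per 100 macrophages, from which IC50 was calculated.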
# [2] = Cytotoxicity, L929 fibroblasts; format: cell-based, mouse; conditions: mouse
# Description: (§2) IC50 values of known antileishmanials and the amine-containing flavonoid monomers of the present invention to promastigotes (L. amazonensis LV78, L major FV1, L. donovani HU3, L. donovani 39), macrophages (Raw 264.7 and PEM) and mouse fibroblast (L929) were determined. The anti-promastigotes activities and cytotoxicity of the amine-containing flavonoid monomers of the invention are shown in Table 1.
# [3] = test system: L. amazonensis LV78 promastigotes; test: Anti-promastigote activity (MTS assay), L. amazonensis LV78; format: cell-based; conditions: Leishmania amazonensis, 72 hours
# Summary of the method: (§3)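 Promastigotes (1×10^5 per well) in Schneider's medium pH 6.9 with 10% FBS, exposed to serial compound concentrations for 72 h at 27 °C. Viability by MTS/PMS reduction over 4 h, OD 490 nm; IC50 derived.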
# [4] = test system: L. donovani Ld39 amastigotes (SSG-resistant); test: Anti-amastigote activity in infected PEM, L. donovani Ld39; format: cell-based; conditions: for IC50: Leishmania donovani, 72 h, infected PEM, 3 days, Giemsa, SSG-resistant; for Selective index (a)/(c): IC50 RAW264.7 over IC50 L. donovani Ld39 amastigotes
# Summary of the method: as §1
# [5] = test system: L. donovani Ld39 promastigotes; test: Anti-promastigote activity (MTS assay), L. donovani Ld39; format: cell-based; conditions: Leishmania donovani, 72 hours
# Summary of the method: as §3
# [6] = test system: L. braziliensis UA847 amastigotes; test: Anti-amastigote activity in infected PEM, L. braziliensis UA847; format: cell-based; conditions: Leishmania braziliensis, 72 h, 3 days, Giemsa, read-out: Anti-amastigote activity IC50, L. baziliensis UA847
# Description: Mouse peritoneal elicited macrophages (PEM) were obtained as previously described (2). A round cover slip (12 mm in diameter) was placed into each well of 24-well culture plate. Mouse PEM were resuspended in supplemented DMEM media containing 10% heat inactivated FBS (v/v), 100 U/mL penicillin and 100 μg/mL streptomycin and seeded into each well at a cell density of 1×10^5 cells per 500 μL. Macrophages were allowed to attach overnight. Non-adherent cells were removed by gentle washing with un-supplemented DMEM media twice. Adherent macrophages were infected with late-log promastigotes at a parasite-to-macrophage ratio of 20:1 overnight at 37° C. with 5% CO2. Non-internalized promastigotes were removed by washing twice with un-supplemented DMEM media. Infected macrophages were further incubated in 500 μL of supplemented DMEM media in the presence or absence of FM for 72 hours at 37° C. After incubation, cover slips were stained with Giemsa and the percentage of macrophages infected and number of amastigotes per 100 macrophages was enumerated.
# PEM cells were infected with late-log promastigotes (L. amazonensis LV78, L. braziliensis UA847, L. donovani HU3, L. donovani 39) for 24 hr at 37° C. Infected macrophages were then treated with various antileishmanials and incubated for 3 days at 37° C. After 3 days, the cover slips were stained with Giemsa. The number of amastigotes per 100 macrophages were determined and used to calculate IC50 values.
# [7] = test system: amastigotes (L. amazonensis LV78, L. braziliensis UA847, L. donovani HU3, L. donovani 39); test: Anti-amastigote activity, strain not given; format: cell-based; conditions: strain not specified; visceral and cutaneous Leishmania; read-out: IC50 against amastigotes
# Summary of the method: as §1
# [8] = test system: L. donovani HU3 promastigotes; test: Anti-promastigote activity (MTS assay), L. donovani HU3; format: cell-based; conditions: Leishmania donovani, 72 hours
# Summary of the method: as §3
# [9] = Preliminary oral bioavailability, single time point plasma concentration oral vs i.v.; format: in vivo, Balb/c mice; conditions: hydrochloride salt in saline, 30 minutes, dose-normalized
# Description: FM01.HCl and FM05.HCl were administered to Balb/c mice via intravenous and passive oral administration. The blood plasma was collected at 30 minutes for LC-MSMS analysis and used for preliminary oral bioavailability screening. The corresponding plasma concentration was normalized by the administered dose for oral bioavailability calculation.
# FM01 and FM05 hydrochloride salt was dissolved in saline and administered to Balb/c mice either orally or i.v. Plasma level of FM01 and FM05 was determined 30 minutes later by LC-MS and their identity confirmed by LC-MS/MS. Plasma concentration from oral feeding was divided by that obtained from i.v. administration. […] In these preliminary studies, the ratios were 45% for FM01 and 64% for FM05 (FIG. 3).
# [10] = test system: L. amazonensis LV78 amastigotes; test: Anti-amastigote activity in infected PEM, L. amazonensis LV78; format: cell-based; conditions: for Selective index (a)/(b): IC50 RAW264.7 over IC50 L. amazonensis LV78 amastigotes; for IC50: Leishmania amazonensis, 72 h, infected PEM, 3 days, Giemsa
# Summary of the method: as §1
# [11] = test system: promastigotes (L. amazonensis LV78, L major FV1, L. donovani HU3, L. donovani 39); test: Anti-promastigote activity, strain not given; format: cell-based; conditions: Leishmania amazonensis; strain not specified; read-out: IC50 against promastigotes
# Description: Anti-promastigote activity was determined according to previous procedures (1) by Cell Titer 96® Aqueous Assay (Promega) that employed a tetrazolium compound. Promastigotes were seeded into 96-well flat bottom microtiter plate at 1×10^5 cells per well in a final volume of 100 μL medium and incubated with a series of concentrations of synthetic FM. Parasites were incubated at 27° C. for 72 hours. After 72 hours of incubation, 10 μL of MTS:PMS mixture [MTS:2-(4,5-Dimethylthiazol-2-yl-)-5-[3-(carboxymethoxy)phenyl]-2-(4-sulfophenyl)-2H-tetrazolium); PMS: phenazine methosulfate both purchased from Sigma] was added into each well of microtiter plate. The plate was then incubated at 27° C. for 4 hours for color development. After 4 hours of incubation, the OD values were determined at 490 nm using automatic microtiter plate reader (Bio-Rad).
# as §2
# [12] = test system: L. major FV1 promastigotes; test: Anti-promastigote activity (MTS assay), L. major FV1; format: cell-based; conditions: Leishmania major, 72 hours
# Summary of the method: as §3
# [13] = Pharmacokinetics of FM05 hydrochloride salt, oral; format: in vivo, Balb/c mice; conditions: male, Balb/c, mouse, plasma, 42 mg/kg, oral, saline; for half-life: po
# Description: Based on the result of the preliminary in vivo study, FM05 hydrochloride salt was selected for further investigation. FM05 hydrochloride salt was dissolved in saline at 4 mg/ml and administered to male balb/c at 42 mg/kg. Blood plasma samples were collected at various time points for pharmacokinetics analysis (n=2 to 3 for each time point).
# [14] = Cytotoxicity, RAW264.7 macrophages; format: cell-based; conditions: mouse, RAW264.7 macrophage cells; murine macrophages RAW264.7
# Description: Promastigotes of visceral L. donovani Ld39 and LdHU3, and cutaneous L. amazonensis LV78, L. braziliensis UA847 and L. major FV1 were employed in the study. All strains were cultured in Schneider's Drosophila Medium (Invitrogen), pH 6.9 supplemented with 10% (v/v) heat inactivated fetal bovine serum (Hyclone) with 4 mM glutamine (Sigma) and 25 μg/mL gentamicin solution (Invitrogen) at 27° C. for 4 days. RAW264.7 cells were cultured in supplemented DMEM media with 10% heat inactivated FBS and 100 U/mL penicillin and 100 μg/mL of streptomycin. They were maintained at 37° C. in a humidified atmosphere with 5% CO2. The cells were split constantly after a confluent monolayer has been formed. The cells were harvested by a cell scraper.
# as §2
# RAW264.7 cells = test: Reactive oxygen species (ROS) level, DCFDA, RAW264.7; format: cell-based, murine
# Description: (§4) 50,000 RAW264.7 were seeded in each well of black 96-well plates overnight. Next day, RAW264.7 cells were pre-loaded with 10 μM dichlorofluorescein diacetate (DCFDA) (Abcam) for 1 hr at 37° C. with 5% CO2. A control of non-DCFDA stained cells was also included. The DCFDA-contained supplemented DMEM media was removed. The cells were re-suspended with 10 μM or 30 μM of respective tested compounds and positive control, tert-butyl hydroperoxide. In Leishmania, 1×10^7 promastigotes were also pre-loaded with 10 μM DCFDA at 27° C. for 1 hr. After removing the DCFDA-contained media, the promastigotes were seeded into black 96-well plate and incubated with 30 μM of respective compounds or positive control. The ROS level was determined at different periods of time including 2, 4, 6, 8, 20, 46 and 72 hr using microplate reader (excitation: 485 nm and emission: […]).
# (§5) The ROS levels in both macrophage RAW264.7 and L. amazonensis promastigotes was measured by dichlorofluorescein diacetate (DCFDA) dye which is permeable to the cells. With oxidative stress, DCFDA would be oxidized to fluorescent DCF which is an indicator of intracellular ROS level. RAW cells or L. amazonensis promastigotes were pre-loaded with 10 μM of DCFDA for 1 hr, washed and exposed to 39, FM09, pentamidine and amphotericin B for different period of time (2, 4, 6, 8, 20, 46 and 72 hr). The fluorescence level was measured at the 520 nm using 485 nm as an excitation wavelength. 0.1% DMSO or 0.3% DMSO was used as a solvent control. The fluorescent value has been subtracted from non-DCFDA stained cells. The values were presented as mean±standard error of mean.
# [15] = Cytotoxicity, peritoneal elicited macrophages (PEM); format: cell-based, mouse; conditions: mouse, peritoneal elicited macrophages (PEM), peritoneal elicited macrophages; read-out: Cytotoxicity IC50, PEM
# [16] = test system: L. amazonensis LV78 promastigotes; test: Reactive oxygen species (ROS) level, DCFDA, promastigotes; format: cell-based; conditions: 30 μM
# Description: as §4, §5
Compound,IC50 [1] [µM],IC50 [2] [µM],IC50 [3] [µM],IC50 [4] [µM],IC50 [5] [µM],IC50 [6] [µM],IC50 [7] [µM],IC50 [8] [µM],Ratio of plasma concentration from oral feeding to i.v. administration [9] [%],Selective index (a)/(b) [10],IC50 [10] [µM],IC50 [11] [µM],IC50 [12] [µM],Selective index (a)/(c) [4],other results
"O=c1cc(-c2ccc(OCCN3CCN(Cc4ccncc4)CC3)cc2)oc2ccccc12 [FM01, 2-(4-(2-(4-(pyridin-4-ylmethyl)piperazin-1-yl)ethoxy)phenyl)-4H-chromen-4-one]",> 9,> 33,6 ± 1.8,> 10,0.7 ± 0.1,8.4,< 5,1.2 ± 0.3,45,28.8,1.8 ± 0.6,< 5,5.6 ± 1,–,–
"O=c1cc(-c2ccc(OCCC3CCN(Cc4ccncc4)CC3)cc2)oc2ccccc12 [FM05, 2-(4-(2-(1-(pyridin-4-ylmethyl)piperidin-4-yl)ethoxy)phenyl)-4H-chromen-4-one]",3.5,> 100,5.1 ± 1,> 10,0.3 ± 0.1,–,< 5,0.4 ± 0.1,64,–,4.1 ± 0.9,< 5,3.9 ± 0.8,<3.7,Selective index (a)/(b) ([1]; IC50 RAW264.7 over IC50 L. donovani HU3 amastigotes): 10.5; half-life ([13]; read-out: Half-life (Distribution and absorption)): 0.417 h; half-life ([13]; read-out: Half-life (Elimination)): 3.37 h; Cmax [13]: 313 ng/mL; Tmax [13]: 2 h
N=C(N)c1ccc(OCCCCCOc2ccc(C(=N)N)cc2)cc1 [Pentamidine],–,–,15.7 ± 5.2,> 30,5.3 ± 0.9,1.1 ± 0.1,–,–,–,1.9,15.7 ± 5.2,–,17.8 ± 2.2,<1,"IC50 [14]: 30 ± 5 µM; RAW264.7 ROS Level, Relative fold (RF) (RAW264.7 cells; 10 μM, 2 hr): 0.9 fold; RAW264.7 ROS Level, Relative fold (RF) (RAW264.7 cells; 10 μM, 4 hr): 0.9 fold; RAW264.7 ROS Level, Relative fold (RF) (RAW264.7 cells; 10 μM, 6 hr): 0.9 fold; RAW264.7 ROS Level, Relative fold (RF) (RAW264.7 cells; 10 μM, 8 hr): 0.8 fold; RAW264.7 ROS Level, Relative fold (RF) (RAW264.7 cells; 10 μM, 20 hr): 0.8 fold; ROS induction in macrophages (RAW264.7 cells; 10 μM, RAW264.7): No ROS induction; RAW264.7 ROS Level, Relative fold (RF) (RAW264.7 cells; 30 μM, 2 hr): 1.1 fold; RAW264.7 ROS Level, Relative fold (RF) (RAW264.7 cells; 30 μM, 4 hr): 1.2 fold; RAW264.7 ROS Level, Relative fold (RF) (RAW264.7 cells; 30 μM, 6 hr): 1.1 fold; RAW264.7 ROS Level, Relative fold (RF) (RAW264.7 cells; 30 μM, 20 hr): 0.9 fold; RAW264.7 ROS Level, Relative fold (RF) (RAW264.7 cells; 30 μM, 46 hr): 0.9 fold; IC50 [15]: 30.4 ± 11 µM; L. amazon LV78 promastigote ROS Level, Relative fold (RF) ([16]; 2 hr): 1.3 fold; L. amazon LV78 promastigote ROS Level, Relative fold (RF) ([16]; 4 hr): 1.4 fold; L. amazon LV78 promastigote ROS Level, Relative fold (RF) ([16]; 6 hr): 1.5 fold; L. amazon LV78 promastigote ROS Level, Relative fold (RF) ([16]; 20 hr): 1.8 fold; L. amazon LV78 promastigote ROS Level, Relative fold (RF) ([16]; 46 hr): about 2.6 fold; L. amazon LV78 promastigote ROS Level, Relative fold (RF) ([16]; 46 hr, listed as pentamidine): 2.6 fold; L. amazon LV78 promastigote ROS Level, Relative fold (RF) ([16]; 72 hr): ~3.4 fold"
